Data reported in patent US20220281846A1, “COMPOUNDS AND COMPOSITIONS FOR THE TREATMENT OF RESPIRATORY DISEASES” (THE UNIVERSITY OF MELBOURNE, priority 2018, published 2022).
Where “and” joins values, the source holds several entries; their conditions need not be identical. Equal entries are not always repeated. Marks after values point to notes of the source that are not given here.

Key:
[1] = Mouse pharmacokinetics, IV and oral administration; format: in vivo; conditions: male C57BL/6 mice
Method: PF670462 (2HCl.0.4 mol. eq. isopropanol) and ZH3-138 (unionised) were administered to male C57BL/6 mice by IV (3 mg/kg) or orally (10 mg/kg). IV administration was achieved by bolus injection into the tail vein of mice using 1 mL syringe with 25G×1″ needle at a volume of 3 mL/kg. Oral administration was achieved by gavage needle at a volume of 3 mL/kg.
Intravenous (IV) and oral formulations were prepared using the same method. On the day of dosing, each of the solid compound was dissolved in DMSO to which an aqueous solution containing 10% Captisol was added. Hydrochloric acid (1 M) was used to modify pH for the formulation of ZH3-138 with the purpose of solubilising the compound (see Section B for the final pH of each formulation). The formulations of each compound were thoroughly vortexed, producing colourless solutions for all three compounds.
The systemic exposure of PF670462 and ZH3-138 was studied in non-fasted male C57BL/6 mice weighing 19.8-26.8 g. Mice had access to food and water ad libitum throughout the pre- and post-dose sampling period.
Compounds were dosed to mice by bolus injection into the lateral tail vein (3 mL/kg) for IV administration and by gavage (3 mL/kg) for oral administration. Following IV and oral administration, blood samples were collected up to 24 h (n=3 mice per time point) with a maximum of three samples from each mouse. Samples were collected via submandibular bleed (approximately 120 μL; conscious sampling). No urine samples were collected as mice were housed in bedded cages.
Blood was collected into polypropylene Eppendorf tubes containing heparin as anticoagulant and stabilisation cocktail (containing Complete® (a protease inhibitor cocktail) and potassium fluoride) to minimise the potential for ex vivo compound degradation in blood/plasma samples.
Once collected, blood samples were centrifuged immediately, supernatant plasma was removed, and stored at −80° C. until analysis by LC-MS.
Plasma samples were quantified against calibration standards prepared by spiking blank mouse plasma (50 μL) with solution standards (10 μL) obtained by diluting a stock solution of test compound (1 mg/mL in DMSO) with 50% acetonitrile in water. Diazepam (10 μL of 5 μg/mL in 50% acetonitrile/water) was added to all plasma calibration standards and samples as an internal standard (IS). The extraction of the test compound and IS from plasma was conducted using protein precipitation with acetonitrile. Protein precipitation was carried out by the addition of acetonitrile followed by vortexing and centrifugation (10,000 rpm) for 3 minutes to obtain supernatant for analysis using the LC-MS conditions described in Table 7.

[2] = format: in vitro ADME, mouse
Method: Incubation: The metabolic stability assay was performed by incubating each test compound in human liver microsomes at 37° C. and a protein concentration of 0.4 mg/mL. The metabolic reaction was initiated by the addition of an NADPH-regenerating system and quenched at various time points over a 60 minute incubation period by the addition of acetonitrile containing diazepam as internal standard. Control samples (containing no NADPH) were included (and quenched at 2, 30 and 60 minutes) to monitor for potential degradation in the absence of cofactor. The human liver microsomes used in this experiment were supplied by XenoTech, lot #1410230. Microsomal incubations were performed at a substrate concentration of 1 μM. Data analysis: Species scaling factors from Ring et al. (2011) JPharmSci, 100:4090-4110 were used to convert the in vitro CLint (μL/min/mg) to an in vivo CLint(mL/min/kg). Hepatic blood clearance and the corresponding hepatic extraction ratio (EH) were calculated using the well stirred model of hepatic extraction in each species, according to the “in vitro T1/2” approach described in Obach (1999) DrugMetab. Dispos. 27:1350-1359. The EH was then used to classify compounds as low(<0.3), intermediate (0.3-0.7), high (0.7-0.95) or very high (>0.95) extraction compounds. Predicted in vivo clearance values have not been corrected for microsomal or plasma protein binding. Species scaling calculations are based on two assumptions: 1) NADPH-dependent oxidative metabolism predominates over other metabolic routes (i.e. direct conjugative metabolism, reduction, hydrolysis, etc.), and; 2) rates of metabolism and enzyme activities in vitro are truly reflective of those that exist in vivo. […] [table]

With `Nc1nccc(-c2c(-c3ccc(F)cc3)ncn2C2CCCCC2)n1` [PF670462, reference compound] the apparent blood clearance [1] was “moderate”, the “apparent blood volume of distribution” value [1] was “moderate” and the “time post-dose for which plasma concentration was measurable (above LLQ)” value ([1]; 24 h sampling period) was “up to 4 h”. For the same compound, the “Plasma Concentration, Mean” value ([1]; IV 2.42 mg/kg, 0.017 h) was 15.5 µM, the “Plasma Concentration, Individual” value ([1]; IV 2.42 mg/kg, 0.017 h, 2.42 mg/kg) was 18.4 µM and 10.9 µM and 17.3 µM and the “Plasma Concentration, Mean” value ([1]; IV 2.42 mg/kg, 0.033 h) was 8.14 µM. For the same compound, the “Plasma Concentration, Individual” value ([1]; IV 2.42 mg/kg, 0.033 h, 2.42 mg/kg) was 8.83 µM and 8.03 µM and 7.57 µM, the “Plasma Concentration, Mean” value ([1]; IV 2.42 mg/kg, 0.083 h) was 6.09 µM and the “Plasma Concentration, Individual” value ([1]; IV 2.42 mg/kg, 0.083 h, 2.42 mg/kg) was 5.58 µM and 5.99 µM and 6.70 µM. The “Plasma Concentration, Mean” value ([1]; IV 2.42 mg/kg, 0.25 h) was 2.48 µM, the “Plasma Concentration, Individual” value ([1]; IV 2.42 mg/kg, 0.25 h, 2.42 mg/kg) was 2.38 µM and 2.32 µM and 2.75 µM and the “Plasma Concentration, Mean” value ([1]; IV 2.42 mg/kg, 0.5 h) was 0.851 µM. For the same compound, the “Plasma Concentration, Individual” value ([1]; IV 2.42 mg/kg, 0.5 h, 2.42 mg/kg) was 0.900 µM and 0.566 µM and 1.09 µM, the “Plasma Concentration, Mean” value ([1]; IV 2.42 mg/kg, 1.0 h) was 0.190 µM and the “Plasma Concentration, Individual” value ([1]; IV 2.42 mg/kg, 1.0 h, 2.42 mg/kg) was 0.193 µM and 0.165 µM and 0.212 µM. For the same compound, the “Plasma Concentration, Mean” value ([1]; IV 2.42 mg/kg, 2.0 h) was 0.253 µM, the “Plasma Concentration, Individual” value ([1]; IV 2.42 mg/kg, 2.0 h, 2.42 mg/kg) was 0.0263 µM and 0.0207 µM and 0.0290 µM and the “Plasma Concentration, Mean” value ([1]; IV 2.42 mg/kg, 4.0 h) was 0.00209 µM. For the same compound, the “Plasma Concentration, Individual” value ([1]; IV 2.42 mg/kg, 4.0 h, values only marginally below the LLQ, 2.42 mg/kg) was 0.00222 ^a μM and 0.00134 ^a μM and 0.0027 ^a μM, the “Plasma Concentration, Mean” value ([1]; oral 10.1 mg/kg, 0.25 h) was 1.25 µM and the “Plasma Concentration, Individual” value ([1]; oral 10.1 mg/kg, 0.25 h, 10.1 mg/kg) was 1.45 µM and 0.873 µM and 1.44 µM. For the same compound, the “Plasma Concentration, Mean” value ([1]; oral 10.1 mg/kg, 0.50 h) was 0.941 µM, the “Plasma Concentration, Individual” value ([1]; oral 10.1 mg/kg, 0.50 h, 10.1 mg/kg) was 1.95 µM and 0.508 µM and 0.366 µM and the “Plasma Concentration, Mean” value ([1]; oral 10.1 mg/kg, 1.0 h) was 0.292 µM. For the same compound, the “Plasma Concentration, Individual” value ([1]; oral 10.1 mg/kg, 1.0 h, 10.1 mg/kg) was 0.260 µM and 0.340 µM and 0.277 µM, the “Plasma Concentration, Mean” value ([1]; oral 10.1 mg/kg, 2.0 h) was 0.103 µM and the “Plasma Concentration, Individual” value ([1]; oral 10.1 mg/kg, 2.0 h, 10.1 mg/kg) was 0.140 µM and 0.0641 µM and 0.104 µM. For the same compound, the “Plasma Concentration, Mean” value ([1]; oral 10.1 mg/kg, 4.0 h) was 0.0165 µM, the “Plasma Concentration, Individual” value ([1]; oral 10.1 mg/kg, 4.0 h, 10.1 mg/kg) was 0.0318 µM and 0.0106 µM and 0.00703 µM and the apparent half-life ([1]; plasma) was “approximately 0.5 h”. For the same compound, the “Predicted CLblood” value [2] was 108 mL/min/kg, the “Predicted CLint, in vivo” value [2] was 1105 mL/min/kg and the “Predicted EH (hepatic extraction ratio)” value [2] was 0.90. The “CLint, in vitro” value ([2]; mouse, microsomes) was 428 μL/min/mg protein and the T1/2 ([2]; mouse, microsomes) was 4 min.
